Test results as given in patent publication US20170304369A1, “METHODS OF DIFFERENTIATING STEM CELLS INTO LIVER CELL LINEAGES” (Agency for Science, Technology and Research, priority 2014, published 2017).
Entries after “also recorded” stand apart in the source; their conditions may differ. Read-outs that look alike come from different tables or passages of the source.

Tests used:
hepatic progenitors = test: Treatment of hepatic progenitors (days 13-18), hepatocyte-like cell, periportal versus perivenous gene expression; type: cell-based, human; conditions: PKG antagonists
PFG cells = test: Liver bud (LB) specification from posterior foregut, days 4-6, gene expression; type: cell-based, human; conditions: for LB gene expression / expansion: addition at the LB specification stage; for subsequent expression of ALB: treatment during LB specification, then hepatic specification medium
Description: (§1) mTeSR1-grown hPSCs were cultured and differentiated as follows: • a) hPSCs cells were seeded at 1:12 as small clumps using Accutase (Millipore, Cat#SCR005) and Geltrex (Lifetech, Cat#A1413302). • b) Anterior Primitive Streak (day 1) was specified using Activin A (100 ng/ml), CHIR99021 (3 μM), PI-103 (50 nM) and Fgf2 (10 ng/ml) in serumless CDM2 basal medium for 24 hr. • c) Activin A (100 ng/ml) and DM3189 (250 nM) and PI-103 (50 nM) were added in the same basal medium for 24 hr to induce Definitive Endoderm (DE) (day 2). • d) DE was then patterned into PFG by using A83-01 (1 μM), RA (2 μM), BMP4 (30 ng/ml) and Fgf2 (10 ng/ml) in CDM KOSR basal media for another 24 hrs. • e) PFG was further differentiated to LB progenitors using Activin A (100 ng/ml), 8-bromo-CAMP (1 mM) and BMP4 (10 ng/ml) in CDM KOSR basal media for 3 days (day 4 to 6). • f) LB progenitors were treated with BMP4 (10 ng/ml), Oncostatin M (10 ng/ml), Dexamethasone ([…]), DAPT, C59 (1 μM) or RO4919097 (2 μM), forskolin ([…]), human recombinant insulin (10 μg/ml), ascorbic acid-2 phosphate (200 μg/ml), L-gluthathione ([…]) and amino acid concentrate and in IMDM/F12 media for the next 6 days (day 7 to 12) to induce hepatic progenitors. • g) Hepatic progenitors were treated with Dexamethasone (10 μM), RO4929097 (2 μM) or DAPT (10 μM), Forskolin (10 μM), human recombinant insulin (10 μg/ml), ascorbic acid-2 phosphate (200 μg/ml) in IMDM/F12 media for 6 days (day 13 to 18) to generate hepatocyte-like cells. Intra-Splenic Transplantation into FRG^−/− Mice
(§2) RNA was extracted using Zymo RNA extraction kit. RT-quantitative PCR was used to quantify gene expression. Primer sequences were designed by NCBI Primer Tool and primer specificity and linearity was tested before usage for gene expression analyses.
The signaling pathways, including Retinoic, Nodal/Activin, Bmp, PKA, FGF and Wnt signaling, were explored to determine if they could directly regulate LB specification.

adult human hepatocytes = test: Adult human primary hepatocytes in vitro culture, liver gene expression after 2 days; type: cell-based
Source text: RNA was extracted using Zymo RNA extraction kit. RT-quantitative PCR was used to quantify gene expression. […]
The signals that promote hepatocyte specification and/or maturation were considered to also ameliorate such loss of liver maturity and gene expression during in vitro culture. Thus, the signaling pathways that appear to be dysregulated were investigated including Notch, TGFb, Wnt, as well as other major signaling pathways including estrogen, BMP, FGF, PKA/cAMP pathways, in order to determine the effects on liver genes after 2 days.

hPSC-derived LB cells = test: Hepatic progenitor specification from hPSC-derived LB cells (days 7-12), liver gene expression; conditions: for subsequent expression of liver genes: brief treatment of LB cells for 2 days
Description: as §1, §2
To identify the signals that regulate the progression of the LB progenitors from an ALB- to a more differentiated ALB+ state, multiple signaling pathways were systematically screened for their effects on ALB expression (including FGF, WNT, Notch, HGF, cAMP/PKA, TGFβ, and BMP).

hPSC-derived DE = test: Foregut specification: treatment of hPSC-derived DE (day 3), downstream gene expression by RT-qPCR; type: cell-based, human
Source text: RT-quantitative PCR was used to quantify gene expression. […] During liver development, populations of definitive endoderm cells are first patterned along the anterior-posterior axis to form either the foregut or mid/hindgut. In the present invention the effects of signaling inhibition on the developmental competence of the foregut cells to give rise to the liver bud (LB) cells was examined. Competence is defined as the capacity of one stem cell or progenitor cell to differentiate into its daughter cell type. For example, the posterior foregut is competent when it could give rise to its daughter cell types such as the pancreatic endoderm and LB cells.

[1] = subtraction from BCDEFV cocktail, day 10
[2] = on removal of the component from a cocktail of signaling factors
[3] = 24 h during foregut specification

CC(=N)NCc1cccc(CN)c1.Cl.Cl [1400 W dihydrochloride, N-[[3-(Aminomethyl)phenyl]methyl]-ethanimidamide dihydrochloride]
expression of FAH, PAH, HGD, TAT, CPS1, ARG1, FBA, FBB and FBG (hepatic progenitors): upregulate

Wnt3A
LB gene expression (PFG cells): higher | expansion (PFG cells): promotes | perivenous xenobiotic gene expression (e.g. CYP3A4, CYP3A5 and CYP3A7) (adult human hepatocytes): increased

C[N+](C)(C)CCO.[Cl-] [choline chloride]
expression of ALB, FAH, PAH, TAT, CYP3A4, CYP3A7, AAT, THR, FBA, FBB, FBG and TBX3 (hPSC-derived LB cells; higher levels of phospholipid precursor): increases

Cc1cccc(-c2[nH]c(C(C)(C)C)nc2-c2ccc3c(c2)OCO3)n1 [SB505124, 2-[4-(1,3-Benzodioxol-5-yl)-2-(1,1-dimethylethyl)-1H-imidazol-5-yl]-6-methyl-pyridine]
subsequent expression of ALB (PFG cells): reduces | competence of hepatic progenitors to generate hepatocyte-like cells (hPSC-derived LB cells): reduces | expression of liver genes such as ALB, CYP3A4, CPS1, FAH, TAT, PAH, HGD, HPD and MAI (hPSC-derived LB cells): lower | later functional liver gene expression of TAT, FAH, PAH, HGD, HPD, and MAI (hPSC-derived LB cells; brief treatment on days 7-8): higher | effect on the cytochrome expression compared with A83-01 (adult human hepatocytes): stronger | expression of CYP1A1, CYP1A2, CYP2C19, CYP2C9, CYP3A4, CYP3A5, CYP3A7 and CYP7A1 (adult human hepatocytes): increased

C[C@H](NC(=O)Cc1cc(F)cc(F)c1)C(=O)NC(C(=O)OC(C)(C)C)c1ccccc1 (stereo partly shown) [DAPT]
SOX9 expression (hPSC-derived LB cells; Notch inhibition): reducing | ALB expression (hPSC-derived LB cells; added to hPSC-derived LB cells): enhance | expression of the majority of cytochrome enzymes (CYP1A1, CYP1A2, CYP2C19, CYP2C9, CYP2D6, CYP2E1, CYP3A4, CYP3A5, CYP3A7, CYP7A1) (adult human hepatocytes): upregulated

Nc1ncnc2c1ncn2[C@@H]1O[C@@H]2CO[P@@](O)(=S)O[C@H]2[C@H]1O [RpCAMP]
p450 cytochrome expression (adult human hepatocytes): promoted

CC(=O)Nc1cccc(-n2c(=O)n(C3CC3)c(=O)c3c(Nc4ccc(I)cc4F)n(C)c(=O)c(C)c32)c1 [GSK1120212]
subsequent expression of liver genes (hPSC-derived LB cells): higher

O=C(NOC[C@H](O)CO)c1ccc(F)c(F)c1Nc1ccc(I)cc1F [PD0325901, N-[(2R)-2,3-Dihydroxypropoxy]-3,4-difluoro-2-[(2-fluoro-4-iodophenyl)amino]-benzamide]
LB gene expression (HNF1A, HNF6, PROX1, TBX3, HNF4A) (PFG cells; inhibition of FGF/MAPK signaling): reduced

C=C[C@@]1(C)CC(=O)[C@]2(O)[C@@]3(C)[C@@H](O)CCC(C)(C)[C@@H]3[C@H](O)[C@H](OC(C)=O)[C@@]2(C)O1 [Forskolin]
expression of functional liver enzymes such as FAH, PAH, HGD, HPD, TAT, CPS1, CYP3A4 (hPSC-derived LB cells): enhances

HGF: Hepatocyte growth factor
ALB expression (hPSC-derived LB cells; added to hPSC-derived LB cells): promotes

Cc1cnc(-c2cnc(NCCNc3ccc(C#N)cn3)nc2-c2ccc(Cl)cc2Cl)[nH]1 [CHIR99201, 6-[[2-[[4-(2,4-dichlorophenyl)-5-(5-methyl-1H-imidazol-2-yl)-2pyrimidinyl]amino]ethyl]amino]-3-pyridinecarbonitrile]
expansion and self-renewal of LB progenitors (PFG cells): enhance | LB gene expression (PFG cells): higher | expansion (PFG cells): promotes | ALB expression (hPSC-derived LB cells; [1]): inhibits | GLT and GS expression (adult human hepatocytes; [2]): decrease | expression of periportal genes like ARG1, SERDH, CPS1 (adult human hepatocytes; [2]): increased

c1ccc2c(-c3cnn4cc(-c5ccc(N6CCNCC6)cc5)cnc34)ccnc2c1 [BM3189]
ALB expression (hPSC-derived LB cells; added to hPSC-derived LB cells): decreased

CCN(CC)CCCCNc1ncc2cc(-c3cc(OC)cc(OC)c3)c(NC(=O)NC(C)(C)C)nc2n1 [PD173074, N-[2-[[4-(Diethylamino)butyl]amino]-6-(3,5-dimethoxyphenyl)pyrido[2,3-d]pyrimidin-7-yl]-N′-(1,1-dimethylethyl)urea]
subsequent expression of liver genes (hPSC-derived LB cells): higher

Cc1ccc2nc(NC(=O)CSc3nc4c(c(=O)n3-c3ccccc3)SCC4)sc2c1 [IWP2, N-(6-Methyl-2-benzothiazolyl)-2-[(3,4,6,7-tetrahydro-4-oxo-3-phenylthieno[3,2-d]pyrimidin-2-yl)thio]-acetamide]
downstream LB gene expression (AFP, CEBPA, TBX3, HNF1B) (hPSC-derived DE; [3]): severely reduces | expression of MHG markers CDX2 and EVX1 (hPSC-derived DE; [3]): reduces | HNF6, PROX1 and HEX expression (hPSC-derived DE; Wnt inhibition during foregut specification): upregulated

CC(C)(C(=O)NCC(F)(F)C(F)(F)F)C(=O)N[C@@H]1C(=O)Nc2ccccc2-c2ccccc21 [R04929097, Propanediamide, N1-[(7S)-6,7-dihydro-6-oxo-5H-dibenz[b,d]azepin-7-yl]-2,2-dimethyl-N3-(2,2,3,3,3-pentafluoropropyl)-]
SOX9 expression (hPSC-derived LB cells; Notch inhibition): reducing | ALB expression (hPSC-derived LB cells; added to hPSC-derived LB cells): enhance | expression of the majority of cytochrome enzymes (CYP1A1, CYP1A2, CYP2C19, CYP2C9, CYP2D6, CYP2E1, CYP3A4, CYP3A5, CYP3A7, CYP7A1) (adult human hepatocytes): upregulated

Nc1ncnc2c1ncn2[C@@H]1O[C@@H]2COP(O)(=S)O[C@H]2[C@H]1O (stereo partly shown) [spCAMP]
periportal gene expression (adult human hepatocytes): promote | perivenous gene expression (e.g. members of the CYP1, CYP2 and CYP3 families) (adult human hepatocytes): reducing

FGF2: activator of FGF signaling
subsequent liver bud gene expression of CEBPA, HNF1A, HNF6, PROX1 (hPSC-derived DE; provided to DE cells during foregut specification): increase | expansion and self-renewal of LB progenitors (PFG cells): enhance | LB gene expression of HNF1A, HNF6, PROX1, TBX3, HNF4A, AFP, CEBPA, HNF1B (PFG cells; addition in CDM KOSR base media): did not benefit | ALB expression (hPSC-derived LB cells; 20 ng/ml): reduction | SOX9 expression (hPSC-derived LB cells; 20 ng/ml): slightly increase | ALB expression (hPSC-derived LB cells; [1]): inhibits

COC(=O)[C@@]1(OC)C[C@H]2O[C@]1(C)n1c3ccccc3c3c4c(c5c6ccccc6n2c5c31)C(=O)N(C)C4 [KT5823, (9S,10R,12R)-2,3,9,10,11,12-Hexahydro-10-methoxy-2,9-dimethyl-1-oxo-9,12-epoxy-1H-diindolo[1,2,3-fg:3′,2′,1′-kl]pyrrolo[3,4-i][1,6]benzodiazocine-10-carboxylic acid, methyl ester]
expression of FAH, PAH, HGD, TAT, CPS1, ARG1, FBA, FBB and FBG (hepatic progenitors): upregulate

O=C1O[C@H]([C@@H](O)CO)C(O)=C1OP(=O)(O)O [AA2P, L-ascorbic acid 2-phosphate]
expression of PAH, HGD, HPD, TAT, MAI, FAH, CYP3A4, ALB and CPS1 (hPSC-derived LB cells): enhancement | liver maturation (hPSC-derived LB cells; days 7 to 12 and days 13 to 16): significantly promoted

Nc1ncnc2c1nc(Br)n2[C@@H]1O[C@@H]2COP(=O)(O)O[C@H]2[C@H]1O [8-bromoCAMP]
expression of LB markers including AFP, CEBPA, HNF6, HNF1B, PROX1, TBX3 and HNF4A (PFG cells; during LB specification): significantly increase | expression of functional liver enzymes such as FAH, PAH, HGD, HPD, TAT, CPS1, CYP3A4 (hPSC-derived LB cells; days 9-12): enhances | hepatic progenitor marker ALB expression (hPSC-derived LB cells; days 9-12): promotes | periportal gene expression (adult human hepatocytes): promote | perivenous gene expression (e.g. members of the CYP1, CYP2 and CYP3 families) (adult human hepatocytes): reducing | expression of cytochrome genes (adult human hepatocytes; [2]): increased

Cc1cccc(-c2nn(C(=S)Nc3ccccc3)cc2-c2ccnc3ccccc23)n1 [A83-01, 3-(6-Methyl-2-pyridinyl)-N-phenyl-4-(4-quinolinyl)-1H-pyrazole-1-carbothioamide]
subsequent expression of ALB (PFG cells): reduces | expression of CYP1A1, CYP1A2, CYP2C19, CYP2C9, CYP3A4, CYP3A5, CYP3A7 and CYP7A1 (adult human hepatocytes; TGFβ inhibition): increased

B1: BMP4: activator of BMP signaling (protein, UniProt P12644 293-408, looked up)
Bone morphogenetic protein 4: SPKHHSQRARKKNKNCRRHSLYVDFSDVGWNDWIVAPPGYQAFYCHGDCPFPLADHLNSTNHAIVQTLVNSVNSSIPKACCVPTELSAISMLYLDEYDKVVLKNYQEMVVEGCGCR
competence to generate LB cells (hPSC-derived DE; treatment during foregut specification): mildly enhanced | LB specification (PFG cells): promotes | dose that maximally induces expression of LB genes (HNF4A, PROX1, AFP, TBX3, HNF1B, HNF1A, HNF6, CEBPA) (PFG cells): 30 to 40 ng/mL | pancreatic specification (PFG cells): inhibited | ALB expression (hPSC-derived LB cells; added to hPSC-derived LB cells): promote; also recorded: increased

B2: OSM: Oncostatin M (protein, UniProt P13725 26-221, looked up)
Oncostatin-M: AAIGSCSKEYRVLLGQLQKQTDLMQDTSRLLDPYIRIQGLDVPKLREHCRERPGAFPSEETLRGLGRRGFLQTLNATLGCVLHRLADLEQRLPKAQDLERSGLNIEDLEKLQMARPNILGLRNNIYCMAQLLDNSDTAEPTKAGRGASQPPTPTPASDAFQRKLEGCRFLHGYHRFMHSVGRVFSKWGESPNRSRR
ALB expression (hPSC-derived LB cells; added to hPSC-derived LB cells): promoted
